The conditions of data set [1]: human gut metagenome, 24 h, 2 µM.
The conditions of data set [2]: human gut metagenome, 24 h, 2 µM. This is another data set of the same source.
A short description of data set [3]: The drug is tested on Z-002 corresponding to rabbit gut metagenome with ENA study accession number: PRJEB37062 and ENA sample accession number: ERS12561802 for biotransformation under anaerobic condition. The drug concentrations were measured over 9 timepoints collected between 0 and 24 hours of incubation by liquid-chromatography-coupled mass spectrometry (LC–MS). The following applies: 2 µM.

Data set [4] in a line: The drug is tested on Z-020 corresponding to rabbit gut metagenome with ENA study accession number: PRJEB37062 and ENA sample accession number: ERS12561819 for biotransformation under anaerobic condition. The drug concentrations were measured over 9 timepoints collected between 0 and 24 hours of incubation by liquid-chromatography-coupled mass spectrometry (LC–MS). The following applies: 2 µM.

The conditions of data set [5]: human gut metagenome, 24 h, 2 µM. This is another data set of the same source.
A short description of data set [6]: The drug is tested on Z-023 corresponding to metagenome with ENA study accession number: PRJEB37062 and ENA sample accession number: ERS12561822 for biotransformation under anaerobic condition. The drug concentrations were measured over 9 timepoints collected between 0 and 24 hours of incubation by liquid-chromatography-coupled mass spectrometry (LC–MS). The following applies: 2 µM.

Data set [7] can be described thus: The drug is tested on Z-006 corresponding to mouse gut metagenome with ENA study accession number: PRJEB37062 and ENA sample accession number: ERS12561806 for biotransformation under anaerobic condition. The drug concentrations were measured over 9 timepoints collected between 0 and 24 hours of incubation by liquid-chromatography-coupled mass spectrometry (LC–MS). The following applies: 2 µM.

The conditions of data set [8]: human gut metagenome, 24 h, 2 µM. The source holds these as a separate data set.
For data set [9] the following is noted: human gut metagenome, 24 h, 2 µM. The source holds these as a separate data set.
The nature of data set [10]: The drug is tested on Z-012 corresponding to metagenome with ENA study accession number: PRJEB37062 and ENA sample accession number: ERS12561812 for biotransformation under anaerobic condition. The drug concentrations were measured over 9 timepoints collected between 0 and 24 hours of incubation by liquid-chromatography-coupled mass spectrometry (LC–MS). The following applies: 2 µM.

A short description of data set [11]: The drug is tested on Z-021 corresponding to metagenome with ENA study accession number: PRJEB37062 and ENA sample accession number: ERS12561820 for biotransformation under anaerobic condition. The drug concentrations were measured over 9 timepoints collected between 0 and 24 hours of incubation by liquid-chromatography-coupled mass spectrometry (LC–MS). The following applies: 2 µM.

The conditions of data set [12]: human gut metagenome, 24 h, 2 µM. This is another data set of the same source.
The conditions of data set [13]: human gut metagenome, 24 h, 2 µM. The source holds these as a separate data set.
For data set [14] the following is noted: human gut metagenome, 24 h, 2 µM. This is another data set of the same source.
The conditions of data set [15]: human gut metagenome, 24 h, 2 µM. The source holds these as a separate data set.
The nature of data set [16]: The drug is tested on Z-019 corresponding to rat gut metagenome with ENA study accession number: PRJEB37062 and ENA sample accession number: ERS12561818 for biotransformation under anaerobic condition. The drug concentrations were measured over 9 timepoints collected between 0 and 24 hours of incubation by liquid-chromatography-coupled mass spectrometry (LC–MS). The settings on record: 2 µM.

The conditions of data set [17]: human gut metagenome, 24 h, 2 µM. The source holds these as a separate data set.
The conditions of data set [18]: human gut metagenome, 24 h, 2 µM. The source holds these as a separate data set.
A short description of data set [19]: The drug is tested on Z-005 corresponding to metagenome with ENA study accession number: PRJEB37062 and ENA sample accession number: ERS12561805 for biotransformation under anaerobic condition. The drug concentrations were measured over 9 timepoints collected between 0 and 24 hours of incubation by liquid-chromatography-coupled mass spectrometry (LC–MS). The following applies: 2 µM.

The conditions of data set [20]: human gut metagenome, 24 h, 2 µM. This is another data set of the same source.

This is an account of results in ChEMBL document CHEMBL5724914, “Linking interpersonal differences in gut microbiota composition and drug biotransformation activity” (2024).
Note: call rule not given here.

Turning to `O=P(O)(O)O.c1ccc(CN(CC2=NCCN2)c2ccccc2)cc1` [ANTAZOLINE PHOSPHATE], the “Bacterial Biotransformation” value is reported as “Compound metabolized” in data set [1]; “Compound NOT metabolized” in data set [2]; “Compound metabolized” in data set [3]; “Compound NOT metabolized” in data set [4]; “Compound NOT metabolized” in [5]; “Compound NOT metabolized” in data set [6]. Further, the “Bacterial Biotransformation” value in data set [7], in data set [8], in [9], in data set [10], in data set [11] and in [12] was “Compound NOT metabolized” in each case. The “Bacterial Biotransformation” value was “Compound NOT metabolized” in [13]; “Compound NOT metabolized” in [14]; “Compound metabolized” in data set [15]; “Compound NOT metabolized” in data set [16]; “Compound NOT metabolized” in [17]; “Compound NOT metabolized” in data set [18]. The “Bacterial Biotransformation” value in data set [19] is “Compound NOT metabolized”; in data set [20] it was “Compound metabolized”.

As for `CN1CCC(=C2c3ccccc3CCc3cccnc32)CC1.O=C(O)/C=C\C(=O)O.O=C(O)/C=C\C(=O)O` [AZATADINE MALEATE], the “Bacterial Biotransformation” value was “Compound metabolized” in data set [1]; “Compound NOT metabolized” in data set [2]; “Compound NOT metabolized” in [3]; “Compound NOT metabolized” in [4]; “Compound NOT metabolized” in data set [5]; “Compound NOT metabolized” in [6]. Further, the “Bacterial Biotransformation” value in [7], in data set [8], in [9], in data set [10], in data set [11] and in data set [12] was “Compound NOT metabolized” in each case. For the same compound, the “Bacterial Biotransformation” value in data set [13] was “Compound NOT metabolized”; in [14], “Compound NOT metabolized”; in [15] it was “Compound NOT metabolized”; in [16], “Compound NOT metabolized”; in data set [17], “Compound NOT metabolized”; in data set [18], “Compound metabolized”. The “Bacterial Biotransformation” value in data set [19] and in data set [20] was “Compound NOT metabolized” in each case.

For the compound `CC(=O)OCC(=O)[C@@]1(O)[C@@H](C)C[C@H]2[C@@H]3CCC4=CC(=O)C=C[C@]4(C)[C@@]3(F)[C@@H](O)C[C@@]21C` [BETAMETHASONE ACETATE], the “Bacterial Biotransformation” value in [1], in [2], in [3], in data set [4], in [5] and in data set [6] was “Compound metabolized” in each case. Moreover, the “Bacterial Biotransformation” value is on record as “Compound metabolized” in [7]; “Compound metabolized” in data set [8]; “Compound metabolized” in data set [9]; “Compound NOT metabolized” in data set [10]; “Compound metabolized” in data set [11]; “Compound NOT metabolized” in data set [12]. In addition, the “Bacterial Biotransformation” value is “Compound metabolized” in [13]; “Compound metabolized” in data set [14]; “Compound metabolized” in data set [15]; “Compound NOT metabolized” in data set [16]; “Compound metabolized” in data set [17]; “Compound metabolized” in data set [18]. The “Bacterial Biotransformation” value in [19] and in [20] was “Compound metabolized” each time.

In the case of `CC(C)NCC(O)COc1ccc(CCOCC2CC2)cc1` (stereo not given) [BETAXOLOL], the “Bacterial Biotransformation” value in [1] is “Compound metabolized”; in data set [2], “Compound NOT metabolized”; in data set [3], “Compound metabolized”; in data set [4], “Compound NOT metabolized”; in data set [5], “Compound NOT metabolized”; in data set [6], “Compound metabolized”. The “Bacterial Biotransformation” value in data set [7], in data set [8], in data set [9], in [10], in data set [11] and in [12] was “Compound NOT metabolized” each time. The “Bacterial Biotransformation” value in data set [13] is “Compound NOT metabolized”; in data set [14] it was “Compound NOT metabolized”; in data set [15], “Compound metabolized”; in data set [16], “Compound NOT metabolized”; in data set [17], “Compound NOT metabolized”; in data set [18], “Compound metabolized”. Besides, the “Bacterial Biotransformation” value is “Compound NOT metabolized” in data set [19] and “Compound metabolized” in [20].

With `CC(C)(Oc1ccc(CCNC(=O)c2ccc(Cl)cc2)cc1)C(=O)O` [BEZAFIBRATE], the “Bacterial Biotransformation” value in data set [1] was “Compound metabolized”; in [2], “Compound metabolized”; in data set [3], “Compound metabolized”; in [4], “Compound NOT metabolized”; in data set [5], “Compound metabolized”; in [6] it was “Compound metabolized”. Further, the “Bacterial Biotransformation” value in data set [7] is recorded as “Compound NOT metabolized”; in data set [8] it was “Compound NOT metabolized”; in data set [9], “Compound metabolized”; in data set [10] it was “Compound NOT metabolized”; in data set [11] it was “Compound metabolized”; in data set [12], “Compound NOT metabolized”. The “Bacterial Biotransformation” value in [13] is on record as “Compound metabolized”; in [14], “Compound metabolized”; in data set [15] it was “Compound metabolized”; in [16] it was “Compound NOT metabolized”; in data set [17], “Compound metabolized”; in data set [18], “Compound metabolized”. Further, the “Bacterial Biotransformation” value in [19] was “Compound NOT metabolized”; in data set [20], “Compound metabolized”.
